Measured values: patent EP0781283B1, “TRIAZOLOPYRIDAZINES PROCESS AND INTERMEDIATES FOR THEIR PREPARATION AND THEIR USE AS MEDICAMENTS” (Takeda Chemical Industries, Ltd., priority 1994, dated 1996)

Assays:
[1] = tested on: PAF-induced bronchoconstriction; test: Effect on platelet activating factor (PAF)-induced bronchoconstriction in guinea pig (Konzett-Roessler method); format: in vivo; conditions: P.O., one hour before PAF (1 µg/kg i.v.), male Hartley guinea pigs
Description: Male Hartley guinea pigs (body weights about 500 g) were used. Bronchoconstriction induced by PAF (1 µg/kg i.v.) in guinea pigs was measured according to the method of Konzett-Roessler. The guinea pig immobilized in the dorsal position, tracheotomy was anesthetized with urethane (1.5 g/kg i.v.) and the trachea was connected through a cannula to a respirator. The side branch of the tracheal cannula was connected to a broncho transducer (Model 7020, Ugobasile). The volume of overflow air was recorded on a rectigraph (Recte-Hori-8S, San-ei Sokki) through the brancho transducer. After guinea pig was given gallamine (1 mg/kg i.v.), the guinea pig was treated by PAF (1 µg/kg). The drug suspended in a 5% solution of gum arabic was administered orally in a dose of 3 mg/kg or 1 mg/kg one hour before PAF treatment.

Guinea Pig Eosinophils = test: Chemotaxis inhibition assay (LTB4-induced chemotaxis of guinea pig eosinophils); format: cell-based; conditions: test drug final concentration 10^-5 M, LTB4 10^-8 M, 2 hours; for inhibition at 10 µM: Cavia porcellus, Eosinophil, read-out: Chemotaxis Inhibition Rate (%)
Description: Male Hartley guinea pigs (body weights approx. 300 g) were intraperitoneally treated with 2 ml of horse serum (Whittaker Bioproducts) once a week for 8 consecutive weeks. Forty-eight (48) hours after the last treatment, 75 ml of physiological saline was infused into the peritoneal cavity and the lavage was collected and centrifuged at 400 G (1500 rpm) for 5 minutes. The pellet was suspended in 5 ml of Percoll discontinuous density, gradients (specific gravity d=1.07), layered on top of the Percoll suspensions (specific gravity d=1.112:5 ml, d=1.095:10 ml, d=1.090:10 ml, d=1.085:7 ml) and centrifuged (18°C) at 1000 G (2200 rpm) for 30 minutes. The cell layer formed in the boundary zone between the d=1.112 and d=1.095 layers was collected. The collected cell sediment was subjected to hypotonic treatment (suspended in water for 30 seconds) to remove the contaminant erythrocytes.
The sediment was washed three times with Hanks solution containing 10 mM Hepes (Dojin Kagaku) (Hanks-Hepes) and suspended in Hanks-Hepes containing 2% (w/v) human serum albumin (Wako Pure Chemical) (Hanks-Hepes-HSA) at a concentration of 5.56 x 10^6 celles/ml. The eosinophil purity was 92-96% and the viability of eosinophils was not less than 98%.
To a 24-well petri dish, which serves as a lower chamber, 600 µl of LTB4 (final concentration 10^-8 M, Cascade Biochemical Ltd.) in suspension in Hanks-Hepes-HSA solution, was transferred, followed by incubation at 37°C for 30 minutes in carbon dioxide incubator. Separately, 200 µl (5 × 10^6 cells/ml) of eosinophil suspension, previously incubated at 37°C for 15 minutes in a constant-temperature chamber, was added to Chemotaxicell (polycarbonate membrane, pore size 3 µm, thickness 10 µm), which serves as an upper chamber, after the upper chamber was attached to the 24-well petri dish. After 2 hours of reaction in the carbon dioxide incubator, the Chemotaxicell was removed; 60 µl of a 2% (w/v) solution of EDTA in physiological saline was added to the liquid in the lower chamber. After the mixture was ice cooled, the cells migrating into the lower chamber liquid were counted using a blood cell counter (Coulter Counter (trade name)). The test drug, dissolved in dimethyl formamide (DMF), was added to both the upper and lower chambers to a final concentration of 10^-5 M. [formula]

SMILES	% Inhibition of PAF-induced bronchoconstriction ([1]; 3 mg/kg) [%]	inhibition at 10 µM (Guinea Pig Eosinophils) [%]	% Inhibition of PAF-induced bronchoconstriction ([1]; 1 mg/kg) [%]	Chemotaxis Inhibition Rate (%) (Guinea Pig Eosinophils)
Cc1cc2ncnn2nc1OCC(C)(C)CS(N)(=O)=O [Reference compound, 6-(2,2-dimethyl-3-sulfamoyl-1-propoxy)-7-methyl[1,2,4]triazolo[1,5-b]pyridazine, reference compound]	25	12		
CC(C)Cc1cc2ncnn2nc1OCC(C)(C)CS(N)(=O)=O [Example 5, 6-(2,2-dimethyl-3-sulfamoyl-1-propoxy)-7-isobutyl[1,2,4]triazolo[1,5-b]pyridazine]		27		
CCCc1cc2ncnn2nc1OCC(C)(C)CS(N)(=O)=O [Example 2, 6-(2,2-dimethyl-3-sulfamoyl-1-propoxy)-7-n-propyl[1,2,4]triazolo[1,5-b]pyridazine]		24	67	
CCC(CC)(COc1nn2ncnc2cc1C(C)C)CS(N)(=O)=O [Example 4, 6-(2,2-diethyl-3-sulfamoyl-1-propoxy)-7-isopropyl[1,2,4]triazolo[1,5-b]pyridazine]		23	60	
CC(C)c1cc2ncnn2nc1OCC(C)(C)CS(N)(=O)=O [Example 3, 6-(2,2-dimethyl-3-sulfamoyl-1-propoxy)-7-isopropyl[1,2,4]triazolo[1,5-b]pyridazine]			72	
CCc1cc2ncnn2nc1OCC(C)(C)CS(N)(=O)=O [Example 1, 6-(2,2-dimethyl-3-sulfamoyl-l-propoxy)-7-ethyl[1,2,4]triazolo[1,5-b]pyridazine]			70	35
CCCCCCc1cc2ncnn2nc1OCC(C)(C)CS(N)(=O)=O [Example 7, 6-(2,2-dimethyl-3-sulfamoyl-1-propoxy)-7-n-hexyl[1,2,4]triazolo[1,5-b]pyridazine]		24		
CC(C)(COc1nn2ncnc2cc1C(C)(C)C)CS(N)(=O)=O [Example 6, 6-(2,2-dimethyl-3-sulfamoyl-1-propoxy)-7-t-butyl[1,2,4]triazolo[1.5-b]pyridazine]	83		43	38
